Measured values: patent publication US20210052547A1 (priority 2016, published 2021)

Experiments:
[1] = test system: rats exposed to ethylene glycol; assay: murine model of ethylene glycol poisoning; assay type: in vivo, rat
Description: A murine model of ethylene glycol poisoning has been prepared by giving 6 g/kg ethylene glycol orally once to twelve adult Sprague-Dawley rats (single oral administration).
Rats have been sacrificed 48 hours after ethylene glycol intake, blood and urine parameters have been collected and kidneys have been removed for histopathological analyses.

[2] = test system: calcium-oxalate kidney stone murine model; assay: calcium-oxalate kidney stone murine model (calcium chloride and hydroxyproline in drinking water); assay type: in vivo, rat; conditions: Stiripentol 4 g/L in drinking water (about 150 mg/Kg), 4 months, versus controls
Description: A calcium-oxalate kidney stone murine model has been generated. […] The rats have been exposed for 4 month to this diet. […] Rats have been sacrificed at the end of the protocol and kidneys have been removed for analyses.

[3] = target: lactate dehydrogenase 1 (LDH-1) (Homo sapiens, UniProt P07195); conditions: in neurons; cited from earlier work
Chain of lactate dehydrogenase 1 (LDH-1) (P07195 2-334 limits assumed): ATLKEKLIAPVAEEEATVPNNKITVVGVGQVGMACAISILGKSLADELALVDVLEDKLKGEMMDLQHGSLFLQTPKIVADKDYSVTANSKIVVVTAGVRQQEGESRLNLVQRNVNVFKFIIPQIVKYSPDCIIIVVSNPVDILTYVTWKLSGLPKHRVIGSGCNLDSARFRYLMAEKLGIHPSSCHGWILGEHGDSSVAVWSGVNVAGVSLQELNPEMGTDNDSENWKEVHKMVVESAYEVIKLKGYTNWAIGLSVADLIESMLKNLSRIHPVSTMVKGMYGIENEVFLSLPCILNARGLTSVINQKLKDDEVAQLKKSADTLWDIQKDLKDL

CYP1A2 = CYP1A2 (Homo sapiens, UniProt P05177); conditions: cited from earlier work
Chain of CYP1A2 (P05177 whole entry): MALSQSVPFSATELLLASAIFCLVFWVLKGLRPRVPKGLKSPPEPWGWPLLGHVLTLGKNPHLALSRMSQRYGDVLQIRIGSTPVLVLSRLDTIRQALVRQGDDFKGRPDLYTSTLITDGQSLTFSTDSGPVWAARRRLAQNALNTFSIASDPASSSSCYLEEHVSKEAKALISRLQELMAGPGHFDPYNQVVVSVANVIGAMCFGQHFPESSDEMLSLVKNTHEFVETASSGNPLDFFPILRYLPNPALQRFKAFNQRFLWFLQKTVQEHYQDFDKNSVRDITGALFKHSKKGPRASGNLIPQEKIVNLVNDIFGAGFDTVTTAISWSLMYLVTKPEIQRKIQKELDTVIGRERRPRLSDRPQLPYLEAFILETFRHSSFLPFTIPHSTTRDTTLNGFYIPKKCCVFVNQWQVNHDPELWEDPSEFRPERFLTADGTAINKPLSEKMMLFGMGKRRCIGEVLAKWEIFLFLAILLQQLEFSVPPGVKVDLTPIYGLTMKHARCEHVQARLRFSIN

CYP3A4 = CYP3A4 (Homo sapiens, UniProt P08684); conditions: cited from earlier work
Chain of CYP3A4 (P08684 whole entry): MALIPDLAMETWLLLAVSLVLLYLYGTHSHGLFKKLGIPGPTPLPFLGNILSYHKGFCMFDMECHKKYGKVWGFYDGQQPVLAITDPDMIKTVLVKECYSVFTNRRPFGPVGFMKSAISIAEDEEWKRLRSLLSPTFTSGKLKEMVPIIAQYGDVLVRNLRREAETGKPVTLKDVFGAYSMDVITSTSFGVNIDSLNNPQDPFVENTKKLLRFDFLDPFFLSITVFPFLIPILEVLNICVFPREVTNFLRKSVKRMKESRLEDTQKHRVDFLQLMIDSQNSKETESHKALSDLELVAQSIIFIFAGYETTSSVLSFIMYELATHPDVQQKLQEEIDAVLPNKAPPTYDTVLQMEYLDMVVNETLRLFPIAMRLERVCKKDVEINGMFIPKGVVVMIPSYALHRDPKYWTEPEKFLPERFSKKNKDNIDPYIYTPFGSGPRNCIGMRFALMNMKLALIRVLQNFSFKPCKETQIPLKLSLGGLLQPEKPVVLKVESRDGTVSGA

[4] = test system: uptake of gamma-aminobutyric acid (GABA); conditions: cited from earlier work
[5] = target: lactate dehydrogenase 5 (LDH-5) (Homo sapiens, UniProt P00338); conditions: in neurons; cited from earlier work

| Compound | calcium oxalate crystals in kidneys (histopathology, kidney section coverage) ([1]; 6 g/kg ethylene glycol orally once, Stiripentol 300 mg/kg at intoxication and 4 g/L in drinking water days 1 and 2, 48 hours, p=0.0046) | urinary oxalate excretion induced by ethylene glycol poisoning ([1]; Stiripentol at therapeutic range) | renal function assessed by serum creatinine levels ([1]; ethylene glycol intoxicated rats, Stiripentol 300 mg/kg then 4 g/L in drinking water, 48 hours, p=0.009) | calcium oxalate crystals in urine [2] | renal function assessed by serum creatinine levels ([2]; p=0.002) | inhibition of pyruvate to lactate conversion by LDH-1 [3] | inhibition of CYP1A2 (CYP1A2) | inhibition of CYP3A4 (CYP3A4) | inhibition of the uptake of GABA [4] | inhibition of pyruvate to lactate conversion by LDH-5 [5] |
| --- | --- | --- | --- | --- | --- | --- | --- | --- | --- | --- |
| CC(C)(C)C(O)/C=C/c1ccc2c(c1)OCO2 (racemic) [Stiripentol, 4,4-dimethyl-1-[(3,4-methylenedioxy)-phenyl]-1-penten-3-ol] | much less crystals | decreases urinary oxalate excretion | remarkably less impaired | less calcium oxalate crystals in urine | preserved renal function | inhibit | inhibitor | inhibitor | inhibits | – |
| C/C=C/c1ccc2c(c1)OCO2 [Isosafrole, 3,4-methylenedioxyphenyl-1-propene] | – | – | – | – | – | inhibit | – | – | – | inhibit |
